We go through three molecules from US8242088B2, “Carrier vectors through an epithelium with tight junctions” (Centre National de la Recherche Scientifique, priority 2000, dated 2012).

No end group written: not given here.

For this data set, the system named is MDCK (Madin-Darby Canine Kidney) cells. The data set can be described thus: Passage across an epithelium with tight junctions (TRANSWELL system). The format is in vitro ADME. Conditions: for passage into the apical compartment: Example 4: basolateral compartment, 10 μM, 30 minutes at 370° C. The procedure:
The passage of the Penet and NES-Penet peptides across an epithelium with tight junctions was evaluated using the device (TRANSWELL system, CORNING-COSTAR) represented in FIG. 3.
This device comprises two compartments (1, 2) separated by a microporous polyester membrane (3) on which an epithelium (4) consisting of MDCK (Madin-Darby Canine Kidney) cells has been established. The cells are seeded and grow to confluence.
The compartment (1) in contact with the microporous membrane and the basolateral pole of the cells is referred to as the basolateral compartment. The compartment (2), in contact with the apical pole of the cells, is referred to as the apical compartment.
Each of the compartments is filled with medium consisting of the following: Minimum Essential Medium with Earle Salt (MEM), 2 mM glutamine, 2 mM Hepes, pH 7, 5 U/ml penicillin, 5 μg/ml streptomycin, supplemented with a mixture of protease inhibitors.
For each experiment, the integrity of the tight junctions is controlled by measuring the resistance between the two compartments (R>2000Ω/cm^2).
Moreover, the tightness of the epithelium was also verified by adding […] inulin (6.5×10^5 cpm/compartment), either to the apical compartment or to the basolateral compartment, and measuring the radioactivity in the other compartment 180 minutes later. […]
The peptides are precipitated by adding 10% trichloro-acetic acid (TCA), and taken up in boiling Laemmli medium. […] The presence of the Penet-1 or NES-Penet peptides in the starting compartment, in the end compartment, or inside the cells, is detected by revelation with streptavidin-peroxidase as indicated in Example 1 above. […]
At the end of the incubation, the contents of the basolateral compartment and of the apical compartment, and that of the cells, were analyzed as described above in order to detect the presence of the NES-Penet peptide.
Furthermore, the passage of the peptides across an epithelium with tight junctions was evaluated using the device described in Example 2 above. […]

On to `CC[C@H](C)[C@H](NC(=O)[C@H](CCCCN)NC(=O)[C@@H]1CCCN1C(=O)[C@H](CCC(N)=O)NC(=O)[C@H](CCCNC(=N)N)NC(=O)[C@H](CCC(=O)O)NC(=O)[C@H](CC(N)=O)NC(=O)[C@H](CC(C)C)NC(=O)CNC(=O)[C@H](CC(C)C)NC(=O)[C@H](CCC(=O)O)NC(=O)[C@H](CCC(N)=O)NC(=O)[C@H](C)NC(=O)[C@H](CC(C)C)NC(=O)[C@H](CO)NC(=O)[C@H](CCC(N)=O)NC(=O)CCCCNC(=O)CCCC[C@@H]1SC[C@@H]2NC(=O)N[C@@H]21)C(=O)N[C@@H](Cc1c[nH]c2ccccc12)C(=O)N[C@@H](Cc1ccccc1)C(=O)N1CCC[C@H]1C(=O)N[C@@H](CC(N)=O)C(=O)N[C@@H](CCCNC(=N)N)C(=O)N[C@@H](CCCNC(=N)N)C(=O)N[C@@H](CCCCN)C(=O)N1CCC[C@H]1C(=O)N[C@@H](Cc1c[nH]c2ccccc12)C(=O)N[C@@H](CCCCN)C(=O)N[C@@H](CCCCN)C(=O)O` [NES-Pen3P], for which the “passage into the apical compartment” value is “much greater”.

On to `CC[C@H](C)[C@H](NC(=O)[C@H](CCCCN)NC(=O)[C@@H](NC(=O)[C@H](CCC(N)=O)NC(=O)[C@H](CCCNC(=N)N)NC(=O)[C@H](CCC(=O)O)NC(=O)[C@H](CC(N)=O)NC(=O)[C@H](CC(C)C)NC(=O)CNC(=O)[C@H](CC(C)C)NC(=O)[C@H](CCC(=O)O)NC(=O)[C@H](CCC(N)=O)NC(=O)[C@H](C)NC(=O)[C@H](CC(C)C)NC(=O)[C@H](CO)NC(=O)[C@H](CCC(N)=O)NC(=O)CCCCNC(=O)CCCC[C@@H]1SC[C@@H]2NC(=O)N[C@@H]21)[C@@H](C)CC)C(=O)N[C@@H](Cc1c[nH]c2ccccc12)C(=O)N[C@@H](Cc1ccccc1)C(=O)N[C@@H](CCC(N)=O)C(=O)N[C@@H](CC(N)=O)C(=O)N[C@@H](CCCNC(=N)N)C(=O)N[C@@H](CCCNC(=N)N)C(=O)N[C@@H](CCSC)C(=O)N[C@@H](CCCCN)C(=O)N[C@@H](Cc1c[nH]c2ccccc12)C(=O)N[C@@H](CCCCN)C(=O)N[C@@H](CCCCN)C(=O)O` [NES-Penet], for which the “degradation of the peptide during passage” value is “not accompanied by any degradation”. On to “RQPKIWFPNRRKPWKK [Pen3P, RQPKIWFPNRRKPWKK, reference compound]”, for which the “passage into the apical compartment” value is “very slight passage”.
